Results on 26 molecules are retold here after patent publication US12459922B2 (Gilead Sciences, Inc., priority 2022, dated 2025).

In this experiment the test system is endogenous cellular STAT1 (phosphorylated at Tyr701) in NCI-H1373 cells. Kind of experiment: Phospho-STAT1 (Tyr701) LANCE Ultra TR-FRET Detection Assay. In kind it is cell-based. To be noted: Homo sapiens, NCI-H1373, 48 h, phospho-STAT1 (Tyr701) induction, read-out: NH1373 pSTAT1 EC50. A general note: In TR-FRET formats the signal depends on donor and acceptor labels being close together.
As to `COc1cc(-c2cc3ccn(CCC[C@H](C)Nc4cn[nH]c(=O)c4C(F)(F)F)c(=O)c3cc2F)ncc1C(F)(F)F` [Example 331, (S)-7-fluoro-6-(4-methoxy-5-(trifluoromethyl)pyridin-2-yl)-2-(4-((6-oxo-5-(trifluoromethyl)-1,6-dihydropyridazin-4-yl)amino)pentyl)isoquinolin-1(2H)-one], the EC50 (as a rule, the concentration needed to bring the measured effect to its halfway point) is 0.0781 µM. In the case of `O=c1[nH]ncc(N[C@H]2CCC[C@@H](Cn3c(=O)[nH]c4cc(-c5ncc(C(F)(F)F)cn5)c(F)cc4c3=O)C2)c1C(F)(F)F` [Example 281, 6-fluoro-3-(((1R,3S)-3-((6-oxo-5-(trifluoromethyl)-1,6-dihydropyridazin-4-yl)amino)cyclohexyl)methyl)-7-(5-(trifluoromethyl)pyrimidin-2-yl)quinazoline-2,4(1H,3H)-dione] it was 0.00287 µM; in that of `COc1cnc(-c2cc3ccn(CCCC4CCN4c4cn[nH]c(=O)c4C(F)(F)F)c(=O)c3cc2F)nc1N` (centres unmarked) [Example 153, 6-(4-amino-5-methoxy-pyrimidin-2-yl)-7-fluoro-2-[3-[1-[6-oxo-5-(trifluoromethyl)-1H-pyridazin-4-yl]azetidin-2-yl]propyl]isoquinolin-1-one], 0.0109 µM.

For the molecule `COc1cnc(-c2cc3ncn(CCC[C@H](C)Nc4cn[nH]c(=O)c4C(F)(F)F)c(=O)c3cc2F)nc1N1CC(O)(C(F)(F)F)C1` [Example 287, (S)-6-fluoro-7-(4-(3-hydroxy-3-(trifluoromethyl)azetidin-1-yl)-5-methoxypyrimidin-2-yl)-3-(4-((6-oxo-5-(trifluoromethyl)-1,6-dihydropyridazin-4-yl)amino)pentyl)quinazolin-4(3H)-one], the concentration giving a half-maximal response (EC50) came out at 0.137 µM. The result for `COc1cnc(-c2cc3ncn(CCC[C@H](C)Nc4cn[nH]c(=O)c4C(F)(F)F)c(=O)c3cc2F)nc1N1CCC1` [Example 188, (S)-7-(4-(azetidin-1-yl)-5-methoxypyrimidin-2-yl)-6-fluoro-3-(4-((6-oxo-5-(trifluoromethyl)-1,6-dihydropyridazin-4-yl)amino)pentyl)quinazolin-4(3H)-one] reads 0.042 µM; that for `C[C@@H](CCCn1ccc2cc(-c3ccc(C(F)F)cn3)c(F)c(F)c2c1=O)Nc1cn[nH]c(=O)c1C(F)(F)F` [Example 51, (S)-6-(5-(difluoromethyl)pyridin-2-yl)-7,8-difluoro-2-(4-((6-oxo-5-(trifluoromethyl)-1,6-dihydropyridazin-4-yl)amino)pentyl)isoquinolin-1(2H)-one], 0.0449 µM; that for `O=c1[nH]ncc(N[C@H](CCCn2ccc3cc(-c4cnc(C(F)(F)F)cn4)c(F)cc3c2=O)COC(F)F)c1C(F)(F)F` [Example 417, (R)-2-(5-(difluoromethoxy)-4-((6-oxo-5-(trifluoromethyl)-1,6-dihydropyridazin-4-yl)amino)pentyl)-7-fluoro-6-(5-(trifluoromethyl)pyrazin-2-yl)isoquinolin-1(2H)-one], 0.00228 µM. Turning to `C[C@@H](C[C@H](O)Cn1ccc2cc(-c3ncc(C(F)(F)F)cn3)c(F)cc2c1=O)Nc1cn[nH]c(=O)c1C(F)(F)F` (single isomer, unassigned) [Example 479], the EC50 is 0.0828 µM. The result for `C[C@@H](CCCn1ccc2cc(-c3ncc(C(F)F)c(NC4CC4)n3)c(F)cc2c1=O)Nc1cn[nH]c(=O)c1C(F)(F)F` [Example 221, (S)-6-(4-(cyclopropylamino)-5-(difluoromethyl)pyrimidin-2-yl)-7-fluoro-2-(4-((6-oxo-5-(trifluoromethyl)-1,6-dihydropyridazin-4-yl)amino)pentyl)isoquinolin-1(2H)-one] reads 0.0153 µM; that for `O=c1[nH]ncc(N2CC[C@@H]2CCCn2ccc3cc(-c4ncc(C(F)(F)F)cn4)c(F)cc3c2=O)c1C(F)(F)F` (single isomer, unassigned) [Example 148], 0.399 µM. For the molecule `C[C@H](Nc1cn[nH]c(=O)c1C(F)(F)F)[C@@H](O)CCn1ccc2cc(-c3ncc(C(F)(F)F)cn3)c(F)cc2c1=O` [Example 442, 7-fluoro-2-((3S,4S)-3-hydroxy-4-((6-oxo-5-(trifluoromethyl)-1,6-dihydropyridazin-4-yl)amino)pentyl)-6-(5-(trifluoromethyl)pyrimidin-2-yl)isoquinolin-1(2H)-one], the half-maximal effective concentration (EC50) was determined as 1.85 µM. Take `CNc1nc(-c2cc3ncn(CCC[C@H](C)Nc4cn[nH]c(=O)c4C(F)(F)F)c(=O)c3cc2F)ncc1C(F)(F)F` [Example 115, 6-fluoro-7-[4-(methylamino)-5-(trifluoromethyl)pyrimidin-2-yl]-3-[(4S)-4-[[6-oxo-5-(trifluoromethyl)-1H-pyridazin-4-yl]amino]pentyl]quinazolin-4-one]: the EC50 was 0.00342 µM. The result for `C[C@@H](CCCn1cnc2cc(-c3cc4c(cn3)C(F)(F)CC4)c(F)cc2c1=O)Nc1cn[nH]c(=O)c1C(F)(F)F` [Example 204] reads 0.0451 µM; that for `C[C@@H](CCCn1ccc2cc(-c3ncc(C(F)(F)F)c(N4CC(C#N)C4)n3)c(F)cc2c1=O)Nc1cn[nH]c(=O)c1C(F)(F)F` [Example 119, (S)-1-(2-(7-fluoro-1-oxo-2-(4-((6-oxo-5-(trifluoromethyl)-1,6-dihydropyridazin-4-yl)amino)pentyl)-1,2-dihydroisoquinolin-6-yl)-5-(trifluoromethyl)pyrimidin-4-yl)azetidine-3-carbonitrile], 0.00336 µM; that for `O=c1[nH]ncc(N[C@H]2CCC[C@@H](Cn3ccc4cc(-c5ncc(Cl)cn5)c(F)cc4c3=O)C2)c1C(F)(F)F` [Example 248, 6-(5-chloropyrimidin-2-yl)-7-fluoro-2-(((1R,3S)-3-((6-oxo-5-(trifluoromethyl)-1,6-dihydropyridazin-4-yl)amino)cyclohexyl)methyl)isoquinolin-1(2H)-one], 0.00344 µM.

For `C[C@@H]1[C@H](O)CN1c1nc(-c2cc3ncn(CCC[C@H](C)Nc4cn[nH]c(=O)c4C(F)(F)F)c(=O)c3cc2F)ncc1C(F)(F)F` [Example 288, 6-fluoro-7-(4-((2R,3R)-3-hydroxy-2-methylazetidin-1-yl)-5-(trifluoromethyl)pyrimidin-2-yl)-3-((S)-4-((6-oxo-5-(trifluoromethyl)-1,6-dihydropyridazin-4-yl)amino)pentyl)quinazolin-4(3H)-one], the concentration giving a half-maximal response (EC50) is 0.0105 µM. In the case of `O=c1[nH]ncc(N[C@H]2CCC[C@@H](Cn3ccc4cc(-c5cnc(C6COC6)cn5)c(F)cc4c3=O)C2)c1C(F)(F)F` [Example 266, 7-fluoro-6-(5-(oxetan-3-yl)pyrazin-2-yl)-2-(((1R,3S)-3-((6-oxo-5-(trifluoromethyl)-1,6-dihydropyridazin-4-yl)amino)cyclohexyl)methyl)isoquinolin-1(2H)-one], the 50% effective concentration (EC50) is 0.187 µM. In the case of `COc1cnc(-c2cc3ccn(C[C@@H]4CCC[C@H](Nc5cn[nH]c(=O)c5C(F)(F)F)C4)c(=O)c3c(F)c2F)nc1N` [Example 278, 6-(4-amino-5-methoxypyrimidin-2-yl)-7,8-difluoro-2-(((1R,3S)-3-((6-oxo-5-(trifluoromethyl)-1,6-dihydropyridazin-4-yl)amino)cyclohexyl)methyl)isoquinolin-1(2H)-one] it was 0.00438 µM; in that of `O=c1[nH]ncc(N[C@H](CCCn2ccc3nc(-c4ccc(C(F)F)cn4)ccc3c2=O)COC(F)F)c1C(F)(F)F` [Example 408, (R)-6-(5-(difluoromethoxy)-4-((6-oxo-5-(trifluoromethyl)-1,6-dihydropyridazin-4-yl)amino)pentyl)-2-(5-(difluoromethyl)pyridin-2-yl)-1,6-naphthyridin-5(6H)-one], 0.00411 µM.

For `C[C@@H](CCCn1cnc2cc(-c3ncc4cc[nH]c4n3)c(F)cc2c1=O)Nc1cn[nH]c(=O)c1C(F)(F)F` [Example 62, 6-fluoro-3-[(4S)-4-[[6-oxo-5-(trifluoromethyl)-1H-pyridazin-4-yl]amino]pentyl]-7-(7H-pyrrolo[2,3-d]pyrimidin-2-yl)quinazolin-4-one], the half-maximal effective concentration (EC50) was 0.0313 µM. The result for `N#Cc1cnc(-c2cc3ccn(CCC[C@@H](Nc4cn[nH]c(=O)c4C(F)(F)F)C4CC4)c(=O)c3cc2F)nc1N` [Example 145, 4-amino-2-[2-[(4R)-4-cyclopropyl-4-[[6-oxo-5-(trifluoromethyl)-1H-pyridazin-4-yl]amino]butyl]-7-fluoro-1-oxoisoquinolin-6-yl]pyrimidine-5-carbonitrile] reads 0.0141 µM. The result for `C[C@@H](CCCn1ccc2cc(-c3nc4cnccn4n3)c(F)cc2c1=O)Nc1cn[nH]c(=O)c1C(F)(F)F` [Example 334, (S)-6-([1,2,4]triazolo[1,5-a]pyrazin-2-yl)-7-fluoro-2-(4-((6-oxo-5-(trifluoromethyl)-1,6-dihydropyridazin-4-yl)amino)pentyl)isoquinolin-1(2H)-one] reads 0.0241 µM; that for `C[C@H](Nc1cn[nH]c(=O)c1C(F)(F)F)/C(F)=C/Cn1ccc2cc(-c3ncc(C(F)(F)F)cn3)c(F)c(F)c2c1=O` [Example 132, (S,Z)-7,8-difluoro-2-(3-fluoro-4-((6-oxo-5-(trifluoromethyl)-1,6-dihydropyridazin-4-yl)amino)pent-2-en-1-yl)-6-(5-(trifluoromethyl)pyrimidin-2-yl)isoquinolin-1(2H)-one], 0.00347 µM. For the molecule `Nc1nc(-c2cc3ccn(CCC[C@H](COC(F)F)Nc4cn[nH]c(=O)c4C(F)(F)F)c(=O)c3c(F)c2F)ncc1OC(F)F` [Example 397, (R)-6-(4-amino-5-(difluoromethoxy)pyrimidin-2-yl)-2-(5-(difluoromethoxy)-4-((6-oxo-5-(trifluoromethyl)-1,6-dihydropyridazin-4-yl)amino)pentyl)-7,8-difluoroisoquinolin-1(2H)-one], the EC50 came out at 0.0101 µM. In the case of `O=c1[nH]ncc(N[C@H]2CCC[C@@H](Cn3cnc4cc(-c5ncc(C(F)(F)F)cn5)c(F)cc4c3=O)C2)c1C(F)(F)F` [Example 235] it was 0.00438 µM; in that of `C[C@@H](C[C@@H](O)Cn1ccc2cc(-c3ncc(C(F)(F)F)cn3)c(F)cc2c1=O)Nc1cn[nH]c(=O)c1C(F)(F)F` (single isomer, unassigned) [Example 480], 0.00414 µM.
